In series [1] the target is R2R3 (P301L) tau peptide (Homo sapiens, UniProt P10636, P618L). The series is described as follows: Atomic force microscopy of R2R3 (P301L) aggregates. The series is classed as biochemical. The following applies: compound 10 μM, 48 h. Here is the method: Aggregates collected after 48 h of aggregation were processed for AFM analysis as described previously (Annadurai, Malina, Malohlava, et al., [2022]).

In series [2] the test system is Tau RD P301S FRET Biosensor cells. Description: Biosensor cells treated with compound alone, no exogenous seeds. The series is classed as cell-based. The following applies: 48 h. The protocol:
Figure S17. […] Tau RD P301S FRET Biosensor cells were treated with PUR or OLC at the indicated concentrations for 48 h in the absence of any exogenous tau seeds or aggregation mixtures. Cells were then imaged under the same conditions described in Figure 5 to assess spontaneous FRET signal (CFP/YFP inclusions) as a readout of intracellular tau aggregation. […] Scale bar: 100 µm.

The target of series [3] is T1, preformed R2R3 (WT) fibrils (Homo sapiens, UniProt P10636).
T1 construct: Peptides spanning R2R3—including PHF6 and PHF6*; purchased ProteoGenix (Schiltigheim, France); host or cells: chemical synthesis (custom peptide)
T1 sequence (P10636 592-653 limits assumed): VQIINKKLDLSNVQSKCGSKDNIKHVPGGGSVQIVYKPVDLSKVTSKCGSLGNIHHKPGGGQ
Description: Elongation of preformed R2R3 (WT) fibrils, ThT. The series is classed as biochemical. The following applies: R2R3 WT pre-aggregated 24 h, compound 10 μM; for ThT-stained aggregates from post-treatment samples, confocal imaging: further 24 h. The protocol:
Peptides were pre‐aggregated for 24 h with aggregation kinetics monitored by ThT fluorescence, after which 10 μM PUR or OLC was added, followed by an additional 24–30 h of incubation (Figure 4a). Aggregation kinetics was monitored by ThT fluorescence, and elongation was quantified as the AUC following compound addition, normalized to each replicate's maximum pre‐treatment fluorescence (Figure 4b). […] WT peptide fibril elongation was reduced to 15.5 ± 2.8% (PUR) and 45.2 ± 3.2% (OLC), and P301L peptide fibril elongation was limited to 31.8 ± 0.6% (PUR) and 85.6 ± 2.2% (OLC) (Figure 4b). Fluorescence microscopy imaging further confirmed the presence of reduced ThT‐positive aggregates following the addition of PUR and OLC (Figure S12). Similar inhibition trends, with PUR outperforming OLC, were also observed for V287I and N279K peptides (Figure S12).
FIGURE 4 Purpurin (PUR) and oleocanthal (OLC) inhibit elongation of preformed wild‐type (WT) and P301L tau fibrils. (a) The thioflavin T (ThT) fluorescence kinetics of pre‐aggregated R2R3 (WT and P301L) tau peptides treated with PUR or OLC (10 μM). Peptides were first allowed to aggregate for 24 h, followed by compound addition and continued incubation for an additional 24–30 h. Vertical dashed lines indicate the time point of compound addition. Curves are normalized to each replicate's maximum pre‐treatment ThT fluorescence. Source data are provided in the Data Availability Statement section. Mean ± SEM (n ≥ 3). (b) Aggregation levels post‐treatment, expressed as a percentage of control (untreated fibrils), calculated from the area under the curve after compound addition. Mean ± SEM (n ≥ 3). ***p < 0.001, **p < 0.01, one‐way ANOVA (Tukey's post hoc test).
Figure S12. Confocal imaging of ThT-stained aggregates from post-treatment samples in Figure 4. R2R3 (WT and P301L) tau peptides were incubated for 24 h to allow initial aggregation, followed by the addition of PUR or OLC (10 µM). After a further 24 h, reaction mixtures from compound-treated wells were collected, embedded in 0.05% low-melting agarose, and processed for imaging as described in Figure S11. […] Scale bar: 50 μm.

Series [4] concerns CCRF-CEM (human leukemic lymphoblast) cells. The series is described as follows: MTS cytotoxicity assay, CCRF-CEM cells. Type of series: cell-based. The following applies: 0-100 µM, 72 h. The protocol:
Figure S16. Cytotoxic activity of PUR and OLC. Tau Biosensor and CCRF-CEM (human leukemic lymphoblast) cells were treated with increasing concentrations (0-100 µM) of PUR and OLC for 72 h. Cell viability was then assessed using the MTS assay. CCRF-CEM (human leukemic lymphoblasts) cells, known for their high sensitivity to cytotoxic agents ^1, were used as positive controls. […] Calculated IC50 values are indicated in the graphs. Mean ± SEM (n = 3).
(In general: Tetrazolium assays rely on reduction of a dye to a coloured formazan, in cell work by metabolically active cells.)

Series [5] relates to PHF6. Details: method as in Viswanathan et al., [2020]. The following applies: reduced efficacy at higher peptide:compound ratios such as 5:1; ref Viswanathan et al., [2020]; cited from earlier work.
On the set-up of series [6]: method as in Viswanathan et al., [2020]. The following applies: in vitro studies; ref Viswanathan et al., [2020]; cited from earlier work.

“Also recorded” adds a separate entry of the source.

R2R3 (P301L) tau peptide, sequence (P10636 592-653 P618L): as the sequence (P10636 592-653 limits assumed) above, with P27L counted along it

On to `C/C=C(/C=O)[C@@H](CC=O)CC(=O)OCCc1ccc(O)cc1` [OLC, oleocanthal], for which the “AFM morphology of aggregates” value in series [1] is “only sparse fibrils”. For the same molecule, the “induction of endogenous tau aggregation (FRET-positive inclusions) by compound alone” value in series [2] is reported as “No FRET-positive aggregates were detected; also recorded: no FRET‐positive inclusions were detected”. The “fibril elongation, aggregation post-treatment as percentage of control (AUC after compound addition)” value in series [3] (further 24–30 h) is given as 45.2 ± 3.2%. In addition, the “ThT-stained aggregates from post-treatment samples, confocal imaging” value in series [3] is listed as “either a complete absence or a marked reduction in ThT signal”. Besides, the half-maximal inhibitory concentration (IC50) in series [4] is > 10 µM.

Regarding `O=C1c2ccccc2C(=O)c2c(O)c(O)cc(O)c21` [PUR, purpurin], in series [1], the “AFM morphology of aggregates” value is “only sparse fibrils”. Moreover, the PHF6 aggregation inhibition result in series [5] is recorded as “inhibits PHF6 aggregation”. Also, the “induction of endogenous tau aggregation (FRET-positive inclusions) by compound alone” value in series [2] is on record as “No FRET-positive aggregates were detected; also recorded: no FRET‐positive inclusions were detected”. Further, the remaining activity at 10 µM in series [3] (further 24–30 h, read-out: fibril elongation, aggregation post-treatment as percentage of control (AUC after compound addition)) was 15.5 ± 2.8%. Moreover, the “ThT-stained aggregates from post-treatment samples, confocal imaging” value in series [3] is recorded as “either a complete absence or a marked reduction in ThT signal”. Also, in series [6], the BBB permeation entry is reported as “can permeate the BBB”.

As a reminder, the IC50 is the concentration that gives 50% inhibition. Read a high IC50 as lower potency.
